Measured values taken from patent publication US10421765B2, “Tetrahydropyrido[4,3-d]pyrimidine inhibitors of ATR kinase” (Board of Regents, The University of Texas System, priority 2017, dated 2019).
Like-named read-outs stand apart in the source and are kept apart here.

Legend:
ATR/ATRIP complex = ATR/ATRIP complex (Homo sapiens (Human), UniProt Q13535); assay: ATR/ATRIP enzymatic assay (Caliper-based); assay type: biochemical; details: FAM-labeled RAD17 peptide, ATP
Procedure: Human full-length FLAG-TEV-ATR and His6-ATRIP were co-expressed in HEK293 cells. The cell pellet (20 g) was harvested and lysed in 100 mL of lysis buffer (20 mM Tris-HCl pH 7.5 at room temperature, 137 mM NaCl, 10% glycerol, 1 mM DTT, 1% (v/v) Tween-20, 0.1% (v/v) NP-40, complete protease inhibitor cocktail tablets, phosphatase inhibitor cocktail tablets, 2 mM MgCl2, 0.2 mM EDTA, and 1 mM ATP). After sonication and centrifugation, the supernatant was incubated at 4° C. for 3 hours with 1 mL of anti-FLAG resin (Sigma catalog #A2220) that had been pre-equilibrated in buffer A (20 mM Tris-HCl pH 7.5 at room temperature, 137 mM NaCl, 10% glycerol, 1 mM DTT, 2 mM MgCl2, and 0.2 mM EDTA). The sample was loaded into a column, and then washed with buffer A three times. Protein was subsequently eluted with 2 ml of buffer B (buffer A+200 μg/ml 3×FLAG peptide).
The ability of new chemical matter to inhibit the ATR catalytic activity in this ATR/ATRIP complex was assessed using a Caliper-based assay. A 2x enzyme solution (i.e., 4 nM enzyme) was prepared using 1× Kinase Reaction Buffer (25 mM HEPES pH 8, 0.0055% Brij-35, 10 mM MnCl2, and 1 mM DTT). A 2x peptide solution was then prepared consisting of 10 uM FAM-labeled RAD17 peptide (GL Biochem, catalog #524315) in 1× Kinase Reaction Buffer supplemented with 2 μM ATP. 10 μL of the 2× enzyme solution was transferred to an assay plate containing 60 nL of test compound (from a 3× serial dilution) in 100% DMSO. Following a 30 minute incubation at 28° C., 10 μL of the 2× peptide solution was then transferred to the same assay plate. The reaction was allowed to incubate at 28° C. for 6 hours. After adding […] of stop buffer (100 mM HEPES pH 7.5, 0.015% Brij-35, 0.2% Coating-3 Reagent (PerkinElmer, catalog #PN760050), and 50 mM EDTA), data were collected on a Caliper instrument. Conversion values were converted to inhibition values via the following equation: % inhibition=(max−conversion)/(max−min)*100, whereby “max” corresponds to the DMSO control and “min” corresponds to the low control. IC50 values were calculated using the following equation in XLFit: Y=Bottom+(Top−Bottom)/1+(IC50/X)^HillSlope).

[1] = test system: ATR-driven phosphorylation of Chk1 kinase at Serine 345 in HT-29 colorectal adenocarcinoma cells; assay: pCHK1 cellular assay (CHK1 p-Ser345 AlphaScreen SureFire); assay type: cell-based; details: 4-nitroquinoline N-oxide 12 uM, read-out: Cell IC50 (pCHK1 IC50 values)
Procedure: Inhibitors of ATR kinase are effective at inhibiting the ATR-driven phosphorylation of the downstream target Chk1 kinase at Serine 345, following the addition of 4-nitroquinoline N-oxide, a chemical used to induce DNA damage. Cellular IC50 for the inhibitors of ATR described herein were measured in HT-29 colorectal adenocarcinoma cells. HT-29 cells were routinely maintained in McCoy's 5A media (ATCC Catalog #30-2007) supplemented with 10% fetal bovine serum (Sigma Catalog #F2442) and 1× Penicillin-Streptomycin (Gibco Catalog #15140-122) using a humidified incubator (37° C., 5% CO2, and ambient O2).
In preparation for the CHK1 (p-Ser345) ALPHASCREEN® SUREFIRE® assay, cells were harvested and resuspended in McCoy's 5A media supplemented with 10% fetal bovine serum and 1× Penicillin-Streptomycin. Cells were seeded onto a 384-well black CELLSTAR® Tissue Culture Plate (VWR Catalog #89085-314) at a density of 13,000 cells/well in a volume of 40 uL. The microplate was incubated overnight (approximately 20 hours) at 37° C. with 5% CO2 and ambient O2. Stock solutions of the test compounds were prepared in 100% DMSO (Sigma, Catalog #D2650) and serially diluted 1:3 using 100% DMSO. Compounds were additionally diluted 1:33 in culture medium, and 10 ul/well were transferred to the tissue culture plate. Following the compound addition the microplate was incubated at 37° C. for 90 minutes. 10 uL of 4-nitroquinoline N-oxide (Sigma Aldrich Catalog #N8141-1G) diluted in media (final concentration 12 uM) were added to the tissue culture plate followed by a 120 minute incubation at 37° C. The cells were then washed with PBS and lysed using 10 uL/well SUREFIRE® Kit lysis buffer diluted to 1× in water (PerkinElmer Catalog #TGRCHK1S50K), with mixing on an orbital shaker at 500 rpm for 20 min at RT. Lysates were frozen at −20° C. overnight.
4 uL/well of lysate was then transferred from the tissue culture plate to a 384-well, white, low volume, PROXIPLATE™ (PerkinElmer Catalog #600828). 5 uL/well of the acceptor bead solution, prepared by diluting SUREFIRE® Kit activation buffer (PerkinElmer Catalog #TGRCHK1S50K) and ALPHASCREEN® Protein A acceptor beads (PerkinElmer Catalog #6760617R) in SUREFIRE® Kit reaction buffer (PerkinElmer Catalog #TGRCHK1S50K), were added to the lysates under subdued light and incubated at room temperature for 120 min. 2 uL/well of the donor bead solution, prepared by diluting ALPHASCREEN® Streptavidin donor beads (PerkinElmer Catalog #6760617R) in SUREFIRE® Kit dilution buffer (PerkinElmer Catalog #TGRCHK1S50K), were added under subdued light and incubated at room temperature for an addition 120 minutes. The pCHK1 ALPHASCREEN® signal was measured using an ENVISION® plate reader (PerkinElmer). IC50 values were calculated using a four-parameter logistic curve fit using Genedata Screener software. Percent of control for each compound concentration was calculated by the following formula: 100*(Compound−Min)/(Max−Min) where “Max” is the high control, DMSO, and “Min” is the low control, 5 uM ATR inhibitor.

[2] = estimated range, read-out: ATR/ATRIP Enzyme IC50 (estimated class)
[3] = Homo sapiens, HT-29, HT-29 cells
[4] = read-out: ATR/ATRIP Enzyme IC50

ATR/ATRIP complex, sequence (Q13535 whole entry): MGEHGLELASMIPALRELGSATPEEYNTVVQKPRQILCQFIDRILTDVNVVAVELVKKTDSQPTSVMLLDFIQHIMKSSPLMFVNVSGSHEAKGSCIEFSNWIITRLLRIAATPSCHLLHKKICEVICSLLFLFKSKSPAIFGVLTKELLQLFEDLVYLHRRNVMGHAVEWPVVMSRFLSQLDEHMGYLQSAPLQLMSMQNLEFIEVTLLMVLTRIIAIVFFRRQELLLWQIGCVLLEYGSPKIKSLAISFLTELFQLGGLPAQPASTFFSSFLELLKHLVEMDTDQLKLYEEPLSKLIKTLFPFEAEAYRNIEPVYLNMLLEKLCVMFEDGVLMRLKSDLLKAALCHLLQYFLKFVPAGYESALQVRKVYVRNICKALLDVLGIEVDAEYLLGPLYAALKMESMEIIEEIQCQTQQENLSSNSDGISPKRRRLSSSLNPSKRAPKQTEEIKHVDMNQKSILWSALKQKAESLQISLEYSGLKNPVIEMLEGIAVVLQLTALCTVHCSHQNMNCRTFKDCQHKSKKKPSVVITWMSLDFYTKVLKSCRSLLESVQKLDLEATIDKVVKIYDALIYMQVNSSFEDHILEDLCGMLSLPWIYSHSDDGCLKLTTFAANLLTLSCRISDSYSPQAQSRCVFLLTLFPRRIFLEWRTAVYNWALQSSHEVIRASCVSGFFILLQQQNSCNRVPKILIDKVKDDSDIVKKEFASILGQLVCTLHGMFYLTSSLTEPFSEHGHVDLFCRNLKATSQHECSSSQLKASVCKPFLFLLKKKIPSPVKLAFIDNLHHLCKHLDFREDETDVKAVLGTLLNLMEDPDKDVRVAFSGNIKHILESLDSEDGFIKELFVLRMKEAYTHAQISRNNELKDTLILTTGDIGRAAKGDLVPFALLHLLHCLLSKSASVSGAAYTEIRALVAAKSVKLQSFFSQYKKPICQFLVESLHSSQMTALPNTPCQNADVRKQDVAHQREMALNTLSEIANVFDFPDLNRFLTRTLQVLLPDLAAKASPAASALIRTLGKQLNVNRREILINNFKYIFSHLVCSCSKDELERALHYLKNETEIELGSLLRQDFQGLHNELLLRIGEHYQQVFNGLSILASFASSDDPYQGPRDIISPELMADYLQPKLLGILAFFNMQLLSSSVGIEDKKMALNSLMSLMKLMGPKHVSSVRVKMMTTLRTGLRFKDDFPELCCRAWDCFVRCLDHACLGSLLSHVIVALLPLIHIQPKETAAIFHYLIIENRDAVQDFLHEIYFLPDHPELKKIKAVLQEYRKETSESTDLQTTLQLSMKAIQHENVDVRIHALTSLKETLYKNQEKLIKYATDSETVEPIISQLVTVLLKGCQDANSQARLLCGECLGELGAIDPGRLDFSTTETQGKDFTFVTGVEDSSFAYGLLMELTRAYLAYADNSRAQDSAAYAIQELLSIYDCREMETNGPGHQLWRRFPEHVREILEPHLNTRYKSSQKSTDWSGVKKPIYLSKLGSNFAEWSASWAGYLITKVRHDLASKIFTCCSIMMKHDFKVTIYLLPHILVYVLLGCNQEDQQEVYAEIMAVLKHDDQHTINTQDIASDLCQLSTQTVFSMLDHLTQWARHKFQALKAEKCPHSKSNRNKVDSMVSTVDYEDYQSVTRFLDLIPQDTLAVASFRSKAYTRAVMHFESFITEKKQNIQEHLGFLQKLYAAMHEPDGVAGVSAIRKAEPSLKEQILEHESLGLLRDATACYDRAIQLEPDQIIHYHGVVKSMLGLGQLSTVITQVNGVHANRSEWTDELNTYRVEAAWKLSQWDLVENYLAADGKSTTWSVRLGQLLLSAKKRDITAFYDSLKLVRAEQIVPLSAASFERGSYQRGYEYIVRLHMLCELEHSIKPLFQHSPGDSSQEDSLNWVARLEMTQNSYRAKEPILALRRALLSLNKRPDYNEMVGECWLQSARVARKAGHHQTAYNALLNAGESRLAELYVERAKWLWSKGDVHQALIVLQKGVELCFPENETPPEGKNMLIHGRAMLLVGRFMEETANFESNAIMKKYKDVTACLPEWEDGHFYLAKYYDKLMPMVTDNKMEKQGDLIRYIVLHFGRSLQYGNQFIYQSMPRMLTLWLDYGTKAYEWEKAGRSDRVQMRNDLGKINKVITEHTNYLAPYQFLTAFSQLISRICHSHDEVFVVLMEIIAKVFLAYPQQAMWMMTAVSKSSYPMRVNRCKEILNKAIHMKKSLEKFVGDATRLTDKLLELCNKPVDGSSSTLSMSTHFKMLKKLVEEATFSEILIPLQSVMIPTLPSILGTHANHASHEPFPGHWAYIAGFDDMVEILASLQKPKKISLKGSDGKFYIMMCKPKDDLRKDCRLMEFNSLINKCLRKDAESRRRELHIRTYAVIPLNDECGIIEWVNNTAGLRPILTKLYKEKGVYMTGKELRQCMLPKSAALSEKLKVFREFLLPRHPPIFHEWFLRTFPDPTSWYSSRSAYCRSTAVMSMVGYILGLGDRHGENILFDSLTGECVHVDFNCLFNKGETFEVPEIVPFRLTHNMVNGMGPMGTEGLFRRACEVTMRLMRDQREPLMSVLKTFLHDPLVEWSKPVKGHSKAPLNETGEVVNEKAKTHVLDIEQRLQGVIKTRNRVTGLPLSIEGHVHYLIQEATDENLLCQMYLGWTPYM
ATR/ATRIP complex, sequence (Q8WXE1 whole entry partner): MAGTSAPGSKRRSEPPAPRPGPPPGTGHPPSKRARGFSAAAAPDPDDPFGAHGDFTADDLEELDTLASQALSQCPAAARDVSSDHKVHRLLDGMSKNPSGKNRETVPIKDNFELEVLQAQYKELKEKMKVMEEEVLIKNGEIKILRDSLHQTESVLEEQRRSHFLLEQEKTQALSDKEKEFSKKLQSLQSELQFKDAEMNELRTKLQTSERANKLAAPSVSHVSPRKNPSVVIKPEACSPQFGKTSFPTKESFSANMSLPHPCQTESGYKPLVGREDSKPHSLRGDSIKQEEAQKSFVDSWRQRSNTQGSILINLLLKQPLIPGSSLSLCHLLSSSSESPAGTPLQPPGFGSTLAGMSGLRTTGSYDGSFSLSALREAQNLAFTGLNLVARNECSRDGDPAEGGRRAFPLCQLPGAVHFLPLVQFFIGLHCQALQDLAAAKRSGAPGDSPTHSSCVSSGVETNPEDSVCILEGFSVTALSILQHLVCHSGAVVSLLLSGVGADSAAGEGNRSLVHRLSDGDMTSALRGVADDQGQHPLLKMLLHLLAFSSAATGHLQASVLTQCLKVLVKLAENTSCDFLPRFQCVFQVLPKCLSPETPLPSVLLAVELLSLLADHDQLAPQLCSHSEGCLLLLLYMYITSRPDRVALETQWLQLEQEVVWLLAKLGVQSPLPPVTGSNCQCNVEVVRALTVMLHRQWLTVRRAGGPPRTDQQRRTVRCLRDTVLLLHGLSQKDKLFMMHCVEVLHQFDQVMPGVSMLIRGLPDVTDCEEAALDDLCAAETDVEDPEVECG

SMILES | IC50 (ATR/ATRIP complex; [2]) [nM] | IC50 [1, 3] [nM] | IC50 (ATR/ATRIP complex; [4]) [nM] | IC50 ([1]; HT-29 cells) [nM]
C[C@@H]1Cc2ncnc(N3CCN(S(C)(=O)=O)CC3)c2CN1c1cc(Cl)nc2[nH]ccc12 [Example 20, 1-[(7R)-6-{6-chloro-1H-pyrrolo[2,3-b]pyridin-4-yl}-7-methyl-5H,6H,7H,8H-pyrido[4,3-d]pyrimidin-4-yl]-4-methanesulfonyl-piperazine] | 1000 to 10000 | 97 |  | 
CC1Cc2ncnc(C3CCN(S(C)(=O)=O)CC3)c2CN1c1ccnc2[nH]ccc12 (centres unmarked) [Example 4, 7-Methyl-4-(1-(methylsulfonyl)piperidin-4-yl)-6-(1H-pyrrolo[2,3-b]pyridin-4-yl)-5,6,7,8-tetrahydropyrido[4,3-d]pyrimidine bis(trifluoroacetate)] |  | 157 | 833 | 
CCOc1cc(N2Cc3c(ncnc3C3CCN(S(C)(=O)=O)CC3)C[C@@H]2CF)c2cc[nH]c2n1 [Example 55a, (R)-6-(6-ethoxy-1H-pyrrolo[2,3-b]pyridin-4-yl)-7-(fluoromethyl)-4-(1-(methylsulfonyl)piperidin-4-yl)-5,6,7,8-tetrahydropyrido[4,3-d]pyrimidine] |  | 2360 | 25000 | 
CS(=O)(=O)N1CCC(c2ncnc3c2CN(c2ccnc4[nH]ccc24)[C@@H](CF)C3)CC1 [Example 52a, (R)-7-(fluoromethyl)-4-(1-(methylsulfonyl)piperidin-4-yl)-6-(1H-pyrrolo[2,3-b]pyridin-4-yl)-5,6,7,8-tetrahydropyrido[4,3-d]pyrimidine] |  | 10000 | 30000 | 
CS(=O)(=O)N1CCC(c2ncnc3c2CN(c2ccnc4[nH]ccc24)[C@H](CF)C3)CC1 [Example 52b, (S)-7-(fluoromethyl)-4-(1-(methylsulfonyl)piperidin-4-yl)-6-(1H-pyrrolo[2,3-b]pyridin-4-yl)-5,6,7,8-tetrahydropyrido[4,3-d]pyrimidine] |  | 209 | 878 | 
C[C@@H]1Cc2ncnc(C3CCN(S(C)(=O)=O)CC3)c2CN1c1cc(OC2CC2)nc2[nH]ccc12 [Example 97, (R)-6-(6-cyclopropoxy-1H-pyrrolo[2,3-b]pyridin-4-yl)-7-methyl-4-(1-(methylsulfonyl)piperidin-4-yl)-5,6,7,8-tetrahydro-pyrido[4,3-d]pyrimidine] |  | 13 | 93 | 
C[C@@H]1Cc2ncnc(N3CCC4(CC3)CNC(=O)O4)c2CN1c1cc(Cl)nc2[nH]ccc12 [Example 31, 8-[(7R)-6-{6-chloro-1H-pyrrolo[2,3-b]pyridin-4-yl}-7-methyl-5H,6H,7H,8H-pyrido[4,3-d]pyrimidin-4-yl]-1-oxa-3,8-diazaspiro[4.5]decan-2-one] |  | 72 | 434 | 
C[C@@H]1Cc2ncnc(N3CC(C#N)C3)c2CN1c1cc(Cl)nc2[nH]ccc12 [Example 79, (R)-1-(6-(6-chloro-1H-pyrrolo[2,3-b]pyridin-4-yl)-7-methyl-5,6,7,8-tetrahydropyrido[4,3-d]-pyrimidin-4-yl)azetidine-3-carbonitrile] |  | 14 | 103 | 
C[C@@H]1Cc2ncnc(C3CCN(S(C)(=O)=O)CC3)c2CN1c1ccnc2[nH]ncc12 [Example 42, (R)-7-methyl-4-(1-(methylsulfonyl)piperidin-4-yl)-6-(1H-pyrazolo[3,4-b]pyridin-4-yl)-5,6,7,8-tetrahydropyrido[4,3-d] pyrimidine] | 1000 to 10000 | 3010 |  | 
CS(=O)(=O)N1CCC(c2ncnc3c2CN(c2ccnc4[nH]ccc24)[C@H](C(F)F)C3)CC1 [Example 53b] |  |  | 2420 | 485
C[C@@H]1Cc2ncnc(N3CCC(NS(C)(=O)=O)CC3)c2CN1c1ccnc2[nH]ccc12 [Example 64, (R)-N-(1-(7-methyl-6-(1H-pyrrolo[2,3-b]-pyridin-4-yl)-5,6,7,8-tetrahydropyrido[4,3-d]-pyrimidin-4-yl)piperidin-4-yl)methanesulfonamide] |  | 16 | 472 | 
C[C@@H]1Cc2ncnc(N3C[C@H]4CC[C@@H](C3)[C@H]4NS(C)(=O)=O)c2CN1c1cc(Cl)nc2[nH]ccc12 [Example 39, N-((1R,5S)-(8-syn)-3-((R)-6-(6-chloro-1H-pyrrolo[2,3-b]pyridin-4-yl)-7-methyl-5,6,7,8-tetrahydropyrido[4,3-d]pyrimidin-4-yl)-3-azabicyclo[3.2.1]octan-8-yl)methanesulfonamide] |  | 27 |  | 
C[C@@H]1Cc2ncnc([C@@H]3CCCN(S(C)(=O)=O)C3)c2CN1c1cc(Cl)nc2[nH]ccc12 (single isomer, unassigned) [Example 51a] |  |  |  | 11
C[C@@H]1Cc2ncnc(N3CC(S(C)(=O)=O)C3)c2CN1c1ccnc2[nH]ccc12 [Example 36, 3-methanesulfonyl-1-[(7R)-7-methyl-6-{1H-pyrrolo[2,3-b]pyridin-4-yl}-5H,6H,7H,8H-pyrido[4,3-d]pyrimidin-4-yl]azetidine] |  | 128 |  | 
C[C@@H]1Cc2ncnc(N3CC(NS(C)(=O)=O)C3)c2CN1c1cc(Cl)nc2[nH]ccc12 [Example 35, N-{1-[(7R)-6-{6-chloro-1H-pyrrolo[2,3-b]pyridin-4-yl}-7-methyl-5H,6H,7H,8H-pyrido[4,3-d]pyrimidin-4-yl]azetidin-3-yl}methanesulfonamide] |  | 34 |  | 
C[C@@H]1Cc2ncnc(N3CCC(S(C)(=O)=O)CC3)c2CN1c1ccnc2[nH]ccc12 [Example 88, (R)-7-methyl-4-(4-(methylsulfonyl)-piperidin-1-yl)-6-(1H-pyrrolo[2,3-b]pyridin-4-yl)-5,6,7,8-tetrahydro-pyrido[4,3-d]pyrimidine] |  |  | 615 | 
C[C@@H]1Cc2ncnc([C@H]3CCCN(S(C)(=O)=O)C3)c2CN1c1cc(Cl)nc2[nH]ccc12 (single isomer, unassigned) [Example 51b] |  |  |  | 48
C[C@@H]1Cc2ncnc(C3CCN(S(C)(=O)=O)CC3)c2CN1c1ncnc2[nH]ccc12 [Example 43, (R)-7-methyl-4-(1-(methylsulfonyl)piperidin-4-yl)-6-(7H-pyrrolo[2,3-d]pyrimidin-4-yl)-5,6,7,8-tetrahydropyrido[4,3-d] pyrimidine] | 1000 to 10000 |  |  | 
